Results: paper PMC2628629 (Bioorganic & medicinal chemistry letters, 2008)

Target: E. coli MenE (Escherichia coli, UniProt P37353)
Assay: MenE inhibition, coupled assay with MenE and MenB
Type: biochemical
Settings: for Inhibition of MenE, result in words: inhibitor at up to 200 μM

Chain of E. coli MenE (P37353 whole entry): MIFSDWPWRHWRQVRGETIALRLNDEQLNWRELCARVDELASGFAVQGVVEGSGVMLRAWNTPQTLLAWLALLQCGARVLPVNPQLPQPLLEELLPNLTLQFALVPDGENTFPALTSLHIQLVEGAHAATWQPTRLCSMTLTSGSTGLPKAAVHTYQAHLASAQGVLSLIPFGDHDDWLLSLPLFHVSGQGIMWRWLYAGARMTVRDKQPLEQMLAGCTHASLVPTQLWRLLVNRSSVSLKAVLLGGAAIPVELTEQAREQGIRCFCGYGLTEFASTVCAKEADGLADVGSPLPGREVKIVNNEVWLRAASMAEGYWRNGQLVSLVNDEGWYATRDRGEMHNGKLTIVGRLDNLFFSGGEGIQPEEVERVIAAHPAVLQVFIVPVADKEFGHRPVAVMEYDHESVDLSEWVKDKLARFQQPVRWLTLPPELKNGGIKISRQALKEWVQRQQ

| Compound | Inhibition of MenE, result in words | Kinetic analysis of MenE inhibition (mode of binding) |
| --- | --- | --- |
| COC(=O)c1ccccc1C(=O)CCC(=O)NS(=O)(=O)OC[C@H]1O[C@@H](n2cnc3c(N)ncnc32)[C@H](O)[C@@H]1O [Compound 1, MeOSB-AMS] | effective inhibitors |  |
| COC(=O)c1ccccc1C(=O)CC/C=C/S(=O)(=O)NC[C@H]1O[C@@H](n2cnc3c(N)ncnc32)[C@H](O)[C@@H]1O [Compound 3, MeOSB-AVSN] |  | slow-binding inhibitor |
| COC(=O)c1ccccc1C(=O)CCC(=O)NS(=O)(=O)NC[C@H]1O[C@@H](n2cnc3c(N)ncnc32)[C@H](O)[C@@H]1O [Compound 2, MeOSB-AMSN] | effective inhibitors |  |
